# According to ChEMBL document CHEMBL5244239, “Penicillin binding protein 2a: An overview and a medicinal chemistry perspective” (Eur J Med Chem, 2020):
# Experiments:
# MecA [1] = target: T1, MecA (Staphylococcus aureus, UniProt Q7DHH4); experiment: Inhibition of Staphylococcus aureus PBP2a
# T1 sequence (Q7DHH4 whole entry): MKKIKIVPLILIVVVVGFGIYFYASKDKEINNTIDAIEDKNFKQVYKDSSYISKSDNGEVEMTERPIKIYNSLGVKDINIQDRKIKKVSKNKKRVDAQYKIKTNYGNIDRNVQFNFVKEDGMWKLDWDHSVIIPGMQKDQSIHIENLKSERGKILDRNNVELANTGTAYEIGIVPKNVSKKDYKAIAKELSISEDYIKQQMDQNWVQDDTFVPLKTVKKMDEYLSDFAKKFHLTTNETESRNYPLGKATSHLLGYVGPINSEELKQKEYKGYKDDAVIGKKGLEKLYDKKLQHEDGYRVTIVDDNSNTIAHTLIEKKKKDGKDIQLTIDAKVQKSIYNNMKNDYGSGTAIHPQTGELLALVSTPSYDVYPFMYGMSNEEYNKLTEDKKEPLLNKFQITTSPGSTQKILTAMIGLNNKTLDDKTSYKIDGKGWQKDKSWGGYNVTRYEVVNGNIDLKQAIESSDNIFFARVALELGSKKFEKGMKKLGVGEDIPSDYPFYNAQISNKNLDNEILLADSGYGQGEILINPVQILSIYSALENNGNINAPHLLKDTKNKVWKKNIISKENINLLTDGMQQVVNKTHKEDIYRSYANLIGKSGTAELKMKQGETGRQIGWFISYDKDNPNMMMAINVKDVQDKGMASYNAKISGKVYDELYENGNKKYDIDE
# Staphylococcus aureus [2] = experiment: Antibacterial activity against methicillin resistant Staphylococcus aureus PL 1; format: functional
# Staphylococcus aureus [3] = experiment: Antibacterial activity against methicillin resistant Staphylococcus aureus ATCC 43300; format: functional
# Staphylococcus aureus [4] = experiment: Potentiation of oxacillin against methicillin resistant Staphylococcus aureus assessed as fold increase in oxacillin activity; format: functional
# Staphylococcus aureus [5] = experiment: Antibacterial activity against methicillin resistant Staphylococcus aureus; format: functional
# Enterococcus faecium = experiment: Antibacterial activity against vancomycin-resistant Enterococcus faecium; format: functional
# Staphylococcus aureus [6] = experiment: Antibacterial activity against Vancomycin-resistant Staphylococcus aureus 2; format: functional
# Staphylococcus aureus [7] = experiment: Antibacterial activity against methicillin sensitive Staphylococcus aureus NRS119; format: functional
# Staphylococcus aureus [8] = experiment: Antibacterial activity against methicillin sensitive Staphylococcus aureus NRS100; format: functional
# Staphylococcus aureus [9] = experiment: Antibacterial activity against methicillin sensitive Staphylococcus aureus NRS128; format: functional
# [10] = target: T2, Penicillin-binding protein 1 (Staphylococcus aureus, UniProt Q53725); experiment: Inhibition of Staphylococcus aureus PBP1
# T2 sequence (Q53725 whole entry): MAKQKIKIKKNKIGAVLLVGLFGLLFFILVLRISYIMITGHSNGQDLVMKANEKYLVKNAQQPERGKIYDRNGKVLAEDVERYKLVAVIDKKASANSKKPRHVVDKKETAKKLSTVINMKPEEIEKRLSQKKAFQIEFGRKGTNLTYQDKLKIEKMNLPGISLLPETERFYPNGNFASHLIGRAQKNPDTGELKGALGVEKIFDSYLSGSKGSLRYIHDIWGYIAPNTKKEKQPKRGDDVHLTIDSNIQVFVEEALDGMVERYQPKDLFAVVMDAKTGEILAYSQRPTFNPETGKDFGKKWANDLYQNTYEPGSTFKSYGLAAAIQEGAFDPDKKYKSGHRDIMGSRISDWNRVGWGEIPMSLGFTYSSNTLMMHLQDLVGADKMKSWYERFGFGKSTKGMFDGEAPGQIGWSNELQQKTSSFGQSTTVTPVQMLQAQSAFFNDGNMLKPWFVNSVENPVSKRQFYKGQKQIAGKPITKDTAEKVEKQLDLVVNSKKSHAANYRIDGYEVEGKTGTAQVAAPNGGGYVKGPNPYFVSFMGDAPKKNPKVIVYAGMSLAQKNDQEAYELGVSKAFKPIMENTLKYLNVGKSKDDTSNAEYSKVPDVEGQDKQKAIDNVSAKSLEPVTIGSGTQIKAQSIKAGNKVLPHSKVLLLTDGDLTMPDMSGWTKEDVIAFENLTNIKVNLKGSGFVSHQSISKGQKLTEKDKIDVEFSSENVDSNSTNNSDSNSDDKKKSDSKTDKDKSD
# Staphylococcus aureus [11] = experiment: Antibacterial activity against methicillin sensitive Staphylococcus aureus NRS120; format: functional
# Staphylococcus aureus [12] = experiment: Antibacterial activity against methicillin sensitive Staphylococcus aureus NRS70; format: functional
# Staphylococcus aureus [13] = experiment: Antibacterial activity against Vancomycin-resistant Staphylococcus aureus 1; format: functional
# Staphylococcus aureus [14] = experiment: Antibacterial activity against methicillin sensitive Staphylococcus aureus ATCC 29213; format: functional
# Staphylococcus aureus [15] = experiment: Antibacterial activity against methicillin sensitive Staphylococcus aureus NRS123; format: functional
# Staphylococcus aureus [16] = experiment: Potentiation of oxacillin against methicillin resistant Staphylococcus aureus OM505 assessed as fold increase in oxacillin activity; format: functional
# Staphylococcus aureus [17] = experiment: Potentiation of oxacillin against methicillin resistant Staphylococcus aureus OM623 assessed as fold increase in oxacillin activity; format: functional
# Staphylococcus aureus [18] = experiment: Potentiation of oxacillin against methicillin resistant Staphylococcus aureus OM481 assessed as fold increase in oxacillin activity; format: functional
# Staphylococcus aureus [19] = experiment: Potentiation of oxacillin against methicillin resistant Staphylococcus aureus OM584 assessed as fold increase in oxacillin activity; format: functional
# Staphylococcus aureus [20] = experiment: Antibacterial activity against methicillin resistant Staphylococcus aureus mp 1; format: functional
# MecA [21] = target: T1, MecA; experiment: Binding affinity to Staphylococcus aureus ATCC 43300 PBP2a
# MecA [22] = target: T1, MecA; experiment: Displacement of [3H]-penicillin from Staphylococcus aureus PBP2a
# MecA [23] = target: T1, MecA; experiment: Binding affinity to methicillin resistant Staphylococcus aureus PBP2a by MST method
# [24] = target: T3, Penicillin-binding protein 2x (Streptococcus pneumoniae serotype 4 (strain ATCC BAA-334 / TIGR4), UniProt P14677); experiment: Binding affinity to Streptococcus pneumoniae PBP2x
# T3 sequence (P14677 whole entry): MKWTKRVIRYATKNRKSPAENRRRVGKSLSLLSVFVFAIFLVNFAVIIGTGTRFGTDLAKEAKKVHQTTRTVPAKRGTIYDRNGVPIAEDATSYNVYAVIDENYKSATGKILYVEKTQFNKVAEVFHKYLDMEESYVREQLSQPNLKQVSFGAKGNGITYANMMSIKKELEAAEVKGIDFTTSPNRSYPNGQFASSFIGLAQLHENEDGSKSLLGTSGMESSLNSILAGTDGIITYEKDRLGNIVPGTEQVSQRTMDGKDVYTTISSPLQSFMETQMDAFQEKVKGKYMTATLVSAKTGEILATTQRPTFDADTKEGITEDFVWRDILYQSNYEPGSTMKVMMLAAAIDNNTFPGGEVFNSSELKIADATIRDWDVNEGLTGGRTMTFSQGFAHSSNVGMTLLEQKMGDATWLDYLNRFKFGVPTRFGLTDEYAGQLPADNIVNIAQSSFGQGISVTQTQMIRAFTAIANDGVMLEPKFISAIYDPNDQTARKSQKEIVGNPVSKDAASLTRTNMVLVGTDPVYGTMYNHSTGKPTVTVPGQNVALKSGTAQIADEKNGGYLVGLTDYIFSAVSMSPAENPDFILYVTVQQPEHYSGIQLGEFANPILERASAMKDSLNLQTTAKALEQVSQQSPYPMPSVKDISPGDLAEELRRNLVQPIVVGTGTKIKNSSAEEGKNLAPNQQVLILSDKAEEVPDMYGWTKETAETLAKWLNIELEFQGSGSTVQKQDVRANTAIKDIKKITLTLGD
# [25] = target: T2, Penicillin-binding protein 1; experiment: Binding affinity to methicillin sensitive Staphylococcus aureus PBP1
# [26] = Binding affinity to methicillin sensitive Staphylococcus aureus PBP4
# [27] = Binding affinity to methicillin sensitive Staphylococcus aureus PBP2
# Staphylococcus aureus [28] = experiment: Antibacterial activity against methicillin resistant Staphylococcus aureus TMHS-3125; format: functional
# Staphylococcus aureus [29] = experiment: Antibacterial activity against methicillin resistant Staphylococcus aureus TMHS-5007; format: functional
# MecA [30] = target: T1, MecA; experiment: Binding affinity to methicillin resistant Staphylococcus aureus PBP2a
# Staphylococcus aureus [31] = experiment: Antibacterial activity against methicillin resistant Staphylococcus aureus 13101; format: functional
# [32] = Binding affinity to methicillin sensitive Staphylococcus aureus PBP3
# Staphylococcus aureus [33] = experiment: Antibacterial activity against methicillin resistant Staphylococcus aureus TMHS-5006; format: functional
# Staphylococcus aureus [34] = experiment: Antibacterial activity against methicillin resistant Staphylococcus aureus 4977; format: functional
compound,measurement,setting,value
CC1(C)S[C@@H]2[C@H](N)C(=O)N2[C@H]1C(=O)O,IC50,MecA [1],7000 µM
C[C@@H](NC(=O)c1c(F)cccc1-c1ccccc1)B(O)O,MIC,Staphylococcus aureus [2],32 µg/mL
same,MIC,Staphylococcus aureus [3],32 µg/mL
C=C1CCC[C@@H]2Nc3ccc(Br)cc3[C@]12CCNS(=O)(=O)c1ccc(Cl)cc1,fold change (FC),Staphylococcus aureus [4],128
Oc1ccc(-c2nc(-c3ccc(Oc4ccccc4)cc3)no2)cc1,MIC,Staphylococcus aureus [5],1 µg/mL
same,MIC,Enterococcus faecium,1 µg/mL
Oc1ccc(-c2nc(-c3ccc(Oc4ccc(C(F)(F)F)cc4)cc3)no2)cc1,MIC,Staphylococcus aureus [5],1 µg/mL
same,MIC,Enterococcus faecium,1 µg/mL
Nc1ccc(-c2nc(-c3ccc(Oc4ccc(C(F)(F)F)cc4)cc3)no2)cc1,MIC,Staphylococcus aureus [5],1 µg/mL
same,MIC,Enterococcus faecium,1 µg/mL
N#Cc1ccc(/C=C/c2nc3ccccc3c(=O)n2-c2cccc(C(=O)O)c2)cc1,MIC,Staphylococcus aureus [6],2 µg/mL
same,MIC,Staphylococcus aureus [7],2 µg/mL
same,MIC,Staphylococcus aureus [8],2 µg/mL
same,IC50,MecA [1],356 µM
same,MIC,Staphylococcus aureus [9],2 µg/mL
same,IC50,[10],78 µg/mL
same,MIC,Staphylococcus aureus [11],2 µg/mL
same,MIC,Staphylococcus aureus [12],2 µg/mL
same,MIC,Staphylococcus aureus [13],2 µg/mL
same,MIC,Staphylococcus aureus [14],2 µg/mL
same,MIC,Staphylococcus aureus [15],2 µg/mL
C#Cc1ccc(/C=C/c2nc3ccccc3c(=O)n2-c2cccc(C(=O)O)c2)cc1,MIC,Staphylococcus aureus [5],0.03 µg/mL
O=c1c2ccccc2nc(/C=C/c2ccc([N+](=O)[O-])cc2)n1-c1cccc(O)c1,MIC,Staphylococcus aureus [14],2 µg/mL
CC(=O)/C(=C/c1cn(CC(=O)N2CCCCC2)c2ccccc12)n1cc([N+](=O)[O-])nc1C,MIC,Staphylococcus aureus [5],1 µg/mL
O=C(O[C@H]1[C@@H]2OC(=O)c3cc(O)c(O)c(O)c3-c3c(cc(O)c(O)c3O)C(=O)OC[C@H]2OC(O)[C@@H]1OC(=O)c1cc(O)c(O)c(O)c1)c1cc(O)c(O)c(O)c1 (stereo partly drawn),fold change (FC),Staphylococcus aureus [16],100
same,fold change (FC),Staphylococcus aureus [17],100
same,fold change (FC),Staphylococcus aureus [18],100
same,fold change (FC),Staphylococcus aureus [19],100
CCCOc1cccc(C(=O)Nc2ccccc2C(=O)O)c1,MIC,Staphylococcus aureus [20],512 µg/mL
same,IC50,MecA [21],910 µM
same,MIC,Staphylococcus aureus [3],512 µg/mL
C[C@@H](O)[C@H]1C(=O)N2C(C(=O)[O-])=C(c3ccc4c(c3)-c3ccc(C[n+]5ccn(C)c5)cc3C4=O)[C@H](C)[C@H]12,IC50,MecA [22],2.48 µM
same,MIC,Staphylococcus aureus [5],16 µg/mL
CCCOc1ccc2cc(C(=O)Nc3ccc(Br)cc3C(=O)O)ccc2c1,MIC,Staphylococcus aureus [20],128 µg/mL
same,IC50,MecA [21],210 µM
same,MIC,Staphylococcus aureus [3],128 µg/mL
COC(=O)C1=C[C@]2(C)C[C@@]34CC[C@@H]5[C@H](C=CC(=O)C5(C)C)[C@]35OC[C@]14[C@](C)(CC2=O)O5,MIC,Staphylococcus aureus [5],32 µg/mL
same,Kd,MecA [23],18.4 µM
CCCOc1cccc(C(=O)Nc2ccc(C)cc2C(=O)O)c1,MIC,Staphylococcus aureus [20],256 µg/mL
same,IC50,MecA [21],680 µM
same,MIC,Staphylococcus aureus [3],256 µg/mL
CCCOc1cccc(C(=O)Nc2ccc(Br)cc2C(=O)O)c1,MIC,Staphylococcus aureus [20],32 µg/mL
same,IC50,MecA [21],230 µM
same,MIC,Staphylococcus aureus [3],32 µg/mL
CCCCOc1ccc2cc(S(=O)(=O)Nc3ccccc3C(=O)O)ccc2c1,MIC,Staphylococcus aureus [20],32 µg/mL
same,IC50,[24],391 µM
same,IC50,MecA [21],97 µM
same,MIC,Staphylococcus aureus [3],32 µg/mL
CCO/N=C(\C(=O)N[C@@H]1C(=O)N2C(C(=O)[O-])=C(Sc3nc(-c4cc[n+](C)cc4)cs3)CS[C@H]12)c1nsc(N)n1 [CEFTAROLINE],IC50,[25],0.165 µM
same,IC50,[26],> 1 µg/mL
same,IC50,[27],0.1 µg/mL
same,MIC,Staphylococcus aureus [28],> 32 µg/mL
same,MIC,Staphylococcus aureus [29],> 32 µg/mL
same,IC50,MecA [30],0.265 µM
same,MIC,Staphylococcus aureus [31],2 µg/mL
same,IC50,[32],0.1 µg/mL
same,MIC,Staphylococcus aureus [33],> 32 µg/mL
same,MIC,Staphylococcus aureus [34],2 µg/mL
Nc1nc(/C(=N/O)C(=O)N[C@@H]2C(=O)N3C(C(=O)O)=C(/C=C4\CCN([C@@H]5CCNC5)C4=O)CS[C@H]23)ns1 [CEFTOBIPROLE],MIC,Staphylococcus aureus [5],0.5 µg/mL
O=C(O[C@@H]1O[C@@H]2COC(=O)c3cc(O)c(O)c(O)c3-c3c(cc(O)c(O)c3O)C(=O)O[C@H]([C@H]1O)[C@@H]2O)c1cc(O)c(O)c(O)c1 [CORILAGIN],fold change (FC),Staphylococcus aureus [16],100
same,fold change (FC),Staphylococcus aureus [17],100
same,fold change (FC),Staphylococcus aureus [18],100
same,fold change (FC),Staphylococcus aureus [19],100
